Assay results as given in PubChem BioAssay (NCI).
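Growth conditions: 96-well plates. Treatment: test compound, 48 hours, 5 concentrations. Analysis: linear interpolation between bracketing concentrations; unreached endpoints set to highest concentration. GI50 marks 50% less growth. TGI: total growth inhibition.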

What was measured:
Test in all cases: NCI tumour cell line growth inhibition, 48 h
KM12 colon = test system: KM12 colon
NCI-H226 lung = test system: NCI-H226 lung
NCI-H23 lung = test system: NCI-H23 lung
U251 CNS = test system: U251 CNS
NCI-H460 lung = test system: NCI-H460 lung
A549 NSCLC = test system: A549 NSCLC
SK-OV-3 ovarian = test system: SK-OV-3 ovarian
NCI-H522 lung = test system: NCI-H522 lung
CAKI-1 renal = test system: CAKI-1 renal
M14 melanoma = test system: M14 melanoma

COC(=O)C(CC(=O)c1cc2c(cc1I)OCO2)Cc1cc(OC)c(OC)c(OC)c1I (stereo not given)
TGI (KM12 colon): > 100 µM | TGI (NCI-H226 lung): > 100 µM | TGI (NCI-H23 lung): > 100 µM | TGI (U251 CNS): > 100 µM | TGI (NCI-H460 lung): > 100 µM | TGI (A549 NSCLC): > 100 µM | TGI (SK-OV-3 ovarian): > 100 µM | TGI (NCI-H522 lung): > 100 µM | TGI (CAKI-1 renal): > 100 µM

CN1CCN(Cc2ccc(NC(=O)c3cncc(C#Cc4cnc(N)c5ccccc45)c3)cc2C(F)(F)F)CC1
GI50 (KM12 colon): 0.0148 µM | TGI (KM12 colon): 0.43 µM | GI50 (NCI-H226 lung): 0.393 µM | TGI (NCI-H226 lung): 1.13 µM | GI50 (NCI-H23 lung): 0.41 µM | TGI (NCI-H23 lung): 0.963 µM | GI50 (M14 melanoma): 0.133 µM | TGI (M14 melanoma): 0.551 µM | GI50 (U251 CNS): 0.279 µM | TGI (U251 CNS): 0.763 µM | GI50 (NCI-H460 lung): 0.158 µM | TGI (NCI-H460 lung): 0.581 µM | GI50 (A549 NSCLC): 0.342 µM | TGI (A549 NSCLC): 0.93 µM | GI50 (SK-OV-3 ovarian): 0.199 µM | TGI (SK-OV-3 ovarian): 0.638 µM | GI50 (NCI-H522 lung): 0.367 µM | TGI (NCI-H522 lung): 0.967 µM | GI50 (CAKI-1 renal): 0.271 µM | TGI (CAKI-1 renal): 0.7 µM

CC1=C[C@@H]2Cc3occc3C(C)(C)[C@@H]2CC1
TGI (KM12 colon): 33.4 µM | TGI (NCI-H226 lung): 32.8 µM | TGI (NCI-H23 lung): 57.3 µM | TGI (M14 melanoma): 47.1 µM | TGI (U251 CNS): 32.7 µM | TGI (A549 NSCLC): 49.6 µM | TGI (SK-OV-3 ovarian): > 100 µM | TGI (NCI-H522 lung): 28.6 µM | TGI (CAKI-1 renal): 52.2 µM

C[C@@H]1Cc2c([nH]c3ccccc23)[C@@H](c2c(F)cc(/C=C/C(=O)O)cc2F)N1CC(C)(C)F
GI50 (KM12 colon): 11 µM | TGI (KM12 colon): 28.7 µM | GI50 (NCI-H226 lung): 18.2 µM | TGI (NCI-H226 lung): 45.2 µM | GI50 (NCI-H23 lung): 11.2 µM | TGI (NCI-H23 lung): 33.8 µM | GI50 (M14 melanoma): 14 µM | TGI (M14 melanoma): 34.5 µM | GI50 (U251 CNS): 10.5 µM | TGI (U251 CNS): 25 µM | GI50 (NCI-H460 lung): 11.5 µM | TGI (NCI-H460 lung): 27.8 µM | GI50 (A549 NSCLC): 11.6 µM | TGI (A549 NSCLC): 26.6 µM | GI50 (SK-OV-3 ovarian): 18.6 µM | TGI (SK-OV-3 ovarian): 36.7 µM | GI50 (NCI-H522 lung): 14 µM | TGI (NCI-H522 lung): 33.6 µM | GI50 (CAKI-1 renal): 18.8 µM | TGI (CAKI-1 renal): 61.8 µM

CC1(C)N=C(N)N=C(N)N1c1ccc(CCCCc2ccc(S(=O)(=O)F)cc2Cl)c(Cl)c1
TGI (KM12 colon): 9.77 µM | TGI (NCI-H226 lung): 158 µM | TGI (NCI-H23 lung): 200 µM | TGI (M14 melanoma): > 382 µM | TGI (U251 CNS): 53.2 µM | TGI (NCI-H460 lung): 80.8 µM | TGI (A549 NSCLC): 200 µM | TGI (SK-OV-3 ovarian): 351 µM | TGI (NCI-H522 lung): 31.4 µM | TGI (CAKI-1 renal): 128 µM

O=C1CSC(N2CCN(c3cccc(Cl)c3)CC2)=N1
GI50 (KM12 colon): > 100 µM | TGI (KM12 colon): > 100 µM | GI50 (NCI-H226 lung): > 100 µM | TGI (NCI-H226 lung): > 100 µM | GI50 (NCI-H23 lung): > 100 µM | TGI (NCI-H23 lung): > 100 µM | GI50 (M14 melanoma): > 100 µM | TGI (M14 melanoma): > 100 µM | GI50 (U251 CNS): > 100 µM | TGI (U251 CNS): > 100 µM | GI50 (NCI-H460 lung): > 100 µM | TGI (NCI-H460 lung): > 100 µM | GI50 (A549 NSCLC): > 100 µM | TGI (A549 NSCLC): > 100 µM | GI50 (SK-OV-3 ovarian): > 100 µM | TGI (SK-OV-3 ovarian): > 100 µM | GI50 (NCI-H522 lung): > 100 µM | TGI (NCI-H522 lung): > 100 µM | GI50 (CAKI-1 renal): > 100 µM | TGI (CAKI-1 renal): > 100 µM

CN(C)CCNC(=O)c1cccc2nc3c(Cl)cccc3nc12
TGI (KM12 colon): 30.4 µM | TGI (NCI-H226 lung): 13.5 µM | TGI (NCI-H23 lung): 20.8 µM | TGI (M14 melanoma): > 36.8 µM | TGI (U251 CNS): 30.5 µM | TGI (A549 NSCLC): > 35.6 µM | TGI (SK-OV-3 ovarian): > 31.6 µM | TGI (NCI-H522 lung): > 100 µM | TGI (CAKI-1 renal): > 70.8 µM

NNC(=O)c1cnn(-c2ccnc3c(C(F)(F)F)cccc23)c1N
GI50 (KM12 colon): > 100 µM | TGI (KM12 colon): > 100 µM | GI50 (NCI-H226 lung): > 100 µM | TGI (NCI-H226 lung): > 100 µM | GI50 (NCI-H23 lung): > 100 µM | TGI (NCI-H23 lung): > 100 µM | GI50 (U251 CNS): > 100 µM | TGI (U251 CNS): > 100 µM | GI50 (NCI-H460 lung): > 100 µM | TGI (NCI-H460 lung): > 100 µM | GI50 (A549 NSCLC): > 100 µM | TGI (A549 NSCLC): > 100 µM | GI50 (SK-OV-3 ovarian): > 100 µM | TGI (SK-OV-3 ovarian): > 100 µM | GI50 (NCI-H522 lung): > 100 µM | TGI (NCI-H522 lung): > 100 µM | GI50 (CAKI-1 renal): > 100 µM | TGI (CAKI-1 renal): > 100 µM
